Source: patent US20040192617A1, “Process for preparing phenolic acid salts of gabapentin” (priority 2003, published 2004)
Where two headings read alike, the source gives them in different places.

Experiments:
[1] = in water and across a wide range of pH; cited from earlier work
[2] = Solubility of the tannate salt, seen as precipitation from the reaction solution; type: physicochemical; conditions: water/ethanol mixture, room temperature; salt precipitates from solution
Experimental: The completeness of the reaction and the formation of the tannate salt were followed by taking samples at different stages of the conversion process. Due to the large size of the tannate salt, it usually precipitates from solution upon formation. The absence or loss of gabapentin from solution is correlated with the formation of the tannate salt.
The conversion process used in this example to synthesize the tannate salt of gabapentin is done at room temperature as follows: 250 ml of purified water and 50 ml of ethanol are placed in a beaker. While mixing the water/ethanol mixture, tannic acid is added and mixing is continued to form a solution. While mixing the tannic acid solution, gabapentin powder is added slowly. The gabapentin reacts with the tannic acid to form the tannate salt. […] The ratio of tannic acid to gabapentin used is 0.8:1.

NCC1(CC(=O)O)CCCCC1 [Gabapentin, 1-(aminomethyl) cyclohexaneacetic acid]
solubility [1]: freely soluble

gabapentin tannate
solubility [2]: low solubility
